Patent US5087562A, “Humoral hypercalcemic factor antagonists with modification at position 13 . . ” (Merck & Co., Inc., priority 1990, dated 1992)

What was measured:
[1] = biological target: T1, Bovine renal cortical plasma membranes (HCF cell surface receptor) (Bos taurus, UniProt Q1LZF7); assay: HCF binding assay (radioligand receptor assay); details: radioligand [Nle^8,18,(^125 I)-Tyr^34]bPTH(1-34)NH2, 30 min at 21° C
T1 construct: from tissue; host or cells: bovine renal cortex plasma membranes
T1 sequence (Q1LZF7 29-589): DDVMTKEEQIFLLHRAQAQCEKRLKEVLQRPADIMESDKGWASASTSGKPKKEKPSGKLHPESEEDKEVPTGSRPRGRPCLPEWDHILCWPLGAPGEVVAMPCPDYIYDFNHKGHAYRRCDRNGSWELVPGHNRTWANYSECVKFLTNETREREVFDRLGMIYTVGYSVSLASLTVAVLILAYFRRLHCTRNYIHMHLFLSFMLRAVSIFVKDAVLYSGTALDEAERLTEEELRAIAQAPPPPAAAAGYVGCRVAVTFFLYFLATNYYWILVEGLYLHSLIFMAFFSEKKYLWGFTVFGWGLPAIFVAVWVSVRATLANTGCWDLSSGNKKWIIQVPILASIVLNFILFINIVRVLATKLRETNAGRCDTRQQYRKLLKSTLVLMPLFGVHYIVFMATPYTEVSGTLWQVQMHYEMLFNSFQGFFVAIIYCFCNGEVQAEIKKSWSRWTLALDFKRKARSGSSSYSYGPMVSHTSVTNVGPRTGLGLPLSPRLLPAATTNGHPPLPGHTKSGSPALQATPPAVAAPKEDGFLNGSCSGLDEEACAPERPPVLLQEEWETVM
Protocol: HCF analogues were analysed in a new receptor assay which modified the assay reported in Rosenblatt et al., Endocrin 107: 545-550 (1980). The binding assay used [Nle^8,18, (^125 I)-Tyr^34 ]bPTH (1-34)NH2 which was purified by HPLC (Novapak C18, 32-35% CH3 CN in 0.1% TFA) and was stored as aliquots in 25 mM TrisHCl/1%BSAat -70° C. Bovine renal cortical plasma membranes were incubated with radioligand (25,000 cpm) in a Tris-containing buffer (250 μl) for 30 min. at 21° C. Once equilibrium was reached, bound and free radioligand were separated by centrifugation.
High specific binding (85%) to bovine renal cortical membranes was obtained consistently.
The assay reported on page 546 in Rosenblatt, et al. is as follows:
Radioligand binding assay: A PTH-binding assay based on the sulfur-free ^125 I-labeled hormone analog, [Nle-8,Nle-18,Tyr-34]-bPTH-(1-34)amide,was employed (4). The assay is specific and saturable with regard to PTH binding, and binding avidity in this system correlates closely with biological acitibity for multiple PTH agonist fragments and analogs. […] Inhibition of specific binding of radioligand was assessed for each fragment over several log orders of magnitude. […] In each assay, inhibition of radioligand binding was determined in triplicate at each concentration of peptide used.

[2] = tested on: bovine renal membrane adenylate cyclase; details: bovine renal cortical membranes; quoted from Horiuchi et al.; cited from earlier work

Row | Kb [1] | Molecule | potency in adenylate cyclase assay (stimulation) [2]
1 | 20 ± 3 nM | CC[C@H](C)[C@H](NC(=O)[C@H](CC(C)C)NC(=O)[C@H](Cc1c[nH]cn1)NC(=O)[C@H](Cc1c[nH]cn1)NC(=O)[C@H](CC(C)C)NC(=O)[C@H](Cc1ccccc1)NC(=O)[C@H](Cc1ccccc1)NC(=O)[C@H](CCCNC(=N)N)NC(=O)[C@H](CCCNC(=N)N)NC(=O)[C@H](CCCNC(=N)N)NC(=O)[C@H](CC(C)C)NC(=O)[C@H](CC(=O)O)NC(=O)[C@H](CCC(N)=O)NC(=O)[C@@H](NC(=O)[C@H](CO)NC(=O)[C@H](CCCCNC(=O)CCc1ccccc1)NC(=O)[C@@H](Cc1c[nH]c2ccccc12)NC(=O)[C@H](CC(C)C)NC(=O)[C@H](CC(=O)O)NC(=O)[C@H](Cc1c[nH]cn1)NC(=O)CCC(C)C)[C@@H](C)CC)C(=O)N[C@@H](C)C(=O)N[C@@H](CCC(=O)O)C(=O)N[C@H](C(=O)N[C@@H](Cc1c[nH]cn1)C(=O)N[C@H](C(=O)N[C@@H](C)C(N)=O)[C@@H](C)O)[C@@H](C)CC [desamino [Leu^11, D-Trp^12, Lys^13 (N^ε --CO(CH2)2 -Phenyl)]hHCF(8-34)NH2] | 
2 |  | hHCF-(1-34)NH2 | potency comparable to PTH
